Assay results taken from publication PMC7248105, “Photoinduced monooxygenation involving NAD(P)H-FAD sequential single-electron transfer” (Nature Communications, 2020).

What was measured:
PqsL [1] = target: T1, PqsL (Pseudomonas aeruginosa, UniProt Q9HWJ1); assay: X-ray crystal structure with FAD and 2-ABA; KD by fluorescence spectroscopy; assay type: binding
T1 construct: final models contain residues 3–370

PqsL-Q = target: T2, PqsL-Q (Pseudomonas aeruginosa, UniProt Q9HWJ1, C105G/G45R/I43R/R41Y); assay: FAD fluorescence polarization; X-ray crystal structure; assay type: binding
T2 construct: final models contain residues 3–370
T2 sequence (Q9HWJ1 1-398 R41Y/I43R/G45R/C105G): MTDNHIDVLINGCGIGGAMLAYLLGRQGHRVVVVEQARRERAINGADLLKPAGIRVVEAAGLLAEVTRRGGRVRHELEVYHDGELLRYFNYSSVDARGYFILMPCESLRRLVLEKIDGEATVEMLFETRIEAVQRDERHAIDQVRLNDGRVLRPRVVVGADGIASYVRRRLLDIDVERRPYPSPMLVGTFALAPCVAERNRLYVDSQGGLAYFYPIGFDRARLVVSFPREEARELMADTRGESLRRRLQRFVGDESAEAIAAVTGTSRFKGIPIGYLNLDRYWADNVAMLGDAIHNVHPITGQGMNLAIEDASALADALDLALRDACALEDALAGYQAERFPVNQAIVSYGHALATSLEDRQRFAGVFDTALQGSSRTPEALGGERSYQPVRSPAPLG

PqsL [2] = target: T1, PqsL; assay: as above; assay type: binding
PqsL [3] = target: T3, PqsL (Pseudomonas aeruginosa, UniProt Q9HWJ1, P273A); assay: FAD binding affinity (fluorescence spectroscopy)
T3 sequence (Q9HWJ1 1-398 P273A): T2 sequence (Q9HWJ1 1-398 R41Y/I43R/G45R/C105G)

[4] = system: NC(=O)C1=CN([C@@H]2O[C@H](COP(=O)(O)OP(=O)(O)OC[C@H]3O[C@@H](n4cnc5c(N)ncnc54)[C@H](O)[C@@H]3O)[C@@H](O)[C@H]2O)C=CC1; assay: purified protein; conditions: FAD
[5] = system: NC(=O)C1=CN([C@@H]2O[C@H](COP(=O)(O)OP(=O)(O)OC[C@H]3O[C@@H](n4cnc5c(N)ncnc54)[C@H](OP(=O)(O)O)[C@@H]3O)[C@@H](O)[C@H]2O)C=CC1; assay: purified protein; conditions: FAD
[6] = target: the molecule itself; assay: SEC; analytical gel filtration, Superdex 200 Increase 10/300 GL, 20 mM tris-HCl pH 8.5 without NaCl, 12 °C, calibrated with Bio-Rad standard

Nc1ccccc1C(=O)CC(=O)O [2-ABA, 2-aminobenzoylacetate]
Kd (PqsL [1]): 38.4 ± 3.98 µM

Cc1cc2nc3c(=O)[nH]c(=O)nc-3n(C[C@H](O)[C@H](O)[C@H](O)COP(=O)(O)OP(=O)(O)OC[C@H]3O[C@@H](n4cnc5c(N)ncnc54)[C@H](O)[C@@H]3O)c2cc1C [FAD]
Kd (PqsL-Q): 0.0375 ± 0.0067 µM
Kd (PqsL [2]): 0.25 ± 0.0298 µM
Kd (PqsL [3]): 64 µM

PqsL (Pseudomonas aeruginosa PAO1)
Km [4]: 310.9 ± 21.6 µM
Km [5]: 157.5 ± 18.9 µM

B1: PqsL (flavoprotein monooxygenase, wild type) (enzyme, Pseudomonas aeruginosa)
chain: T2 sequence (Q9HWJ1 1-398 R41Y/I43R/G45R/C105G)
notes: PqsL, FAD-dependent monooxygenase of alkyl quinolone N-oxide biosynthesis, Pseudomonas aeruginosa; the crystal models hold residues 3-370; One protomer is written; also called Wild-type PqsL; FPMO PqsL; source: E. coli LMG194 (pHERD30T), purified (Ni-NTA, Resource Q anion exchange)
stoichiometry N [6]: 2
